According to patent US10111889B2, “Uses of ganaxolone” (priority 2014, dated 2018):

How the values were obtained:
[1] = system: wild-type mice; details: thalamus of wild-type mice; cited from earlier work
[2] = system: WAG/Rij mice; details: administered directly into somatosensory cortex; cited from earlier work
[3] = clinical trials; even at very high doses; cited from earlier work
[4] = system: RQ mice; assay: Evaluation of sleep patterns (video and EEG) in RQ mice; assay type: in vivo, mouse; details: 2 mg/kg i.p. on two consecutive days
Text: RR and RQ mice (n=3 each) were monitored with video and EEG recordings. […] Sleep stages (Wake, NREM and REM) were scored visually from the EEG by an experienced scorer. For statistical analysis, EEG delta power (0.5-4 Hz) was normalized by dividing by the sum of power in the non-delta bands (6-100 Hz).

[5] = system: GABAA receptor; assay: Whole-cell patch clamp, tonic/holding current in somatosensory cortical layer II/III pyramidal cells of brain slices; assay type: cell-based, mouse; details: 30 μM
Experimental: Horizontal slices (400 μm) were prepared from the brains of C57BL/6J mice RR and RQ mice of either sex (16-26 days old). […] Mice were anesthetized with isoflurane, decapitated, and the brain was removed and placed in ice-cold cutting solution containing (in mM): 125 NaCl, 25 NaHCO3, 2.5 KCl, 1.25 NaH2PO4, 0.5 CaCl2, 3.35 MgCl2, 25 D-Glucose, 13.87 M sucrose, and bubbled with 95% O2 and 5% CO2. Slices were cut using a vibratome (Leica VT 1000S, Global Medical Imaging; Ramsey, Minn.) and placed in an incubation chamber containing standard 2 mM CaCl2, 1 mM MgCl2 artificial cerebrospinal fluid (ACSF) at room temperature for 1 hour before being used for recordings. Whole cell patch-clamp recordings were made from somatosensory cortical layer II/III pyramidal cells or ventrobasal thalamic relay cells, visualized using an upright differential interference contrast microscope (Axioskop FS2, Zeiss; Oberkochen, Germany). […]
Additional segments (30 s) just prior to and 90 s after bicuculline administration were analyzed to quantify inhibitory tonic currents. […] Tonic current was calculated as the difference between the fitted Gaussian means before and after bicuculline administration. Current density (pA/pF) was calculated by dividing the current by cell capacitance.

[6] = system: wild-type (RR) mice; assay: EEG monitoring of SWDs in wild-type (RR) mice after blocking cortical tonic inhibition; assay type: in vivo, mouse
Text: The present study used wild-type Harlan C57BL/6J-OlaHsd and γ2R43Q knock-in mice bred into a background of C57BL/6J-OlaHsd mice. Behavioral and electrographic markers of absence epilepsy in these animals were confirmed by video-EEG monitoring. In-depth detailing of surgery and electrode implantation are described in the prior art. Briefly, P24 mice were implanted, under isoflurane anesthesia (1%-2% in 100% O2), for chronic EEG recordings with gold plated miniature screw electrodes over the right and left frontal and parietal cortices, and one over the cerebellum as reference. Two vinyl-coated braided stainless steel wire electrodes were placed in the nuchal muscle for electromyogram (EMG) recording of muscle activity. All electrodes were gathered into a flexible cable and connected to the Multichannel Neurophysiology Recording system (Tucker-Davis Technologies, TDT, Alachua, Fla., USA). […] Continuous EEG recordings with occasional video monitoring were made and SWDs were scored off-line. […] Only SWD events that occurred >2 min from slow-wave-sleep periods were used for quantification. SWD event durations were measured from the first synchronized positive peak signal to the last synchronized positive peak within an event. […]
When comparing normally distributed data, two groups were assessed with a t-test and comparisons of three or more were assessed with ANOVA. […]

Question: For `Oc1noc2c1CCNC2` [THIP, 4,5,6,7-tetrahydroisoxazolo[5,4-c]pyridin-3-ol], which “SWDs associated with absence epilepsy” value [1] is on record?
Answer: Its value is “produces the SWDs”.

Question: With `CC(=O)[C@H]1CC[C@H]2[C@@H]3CC[C@H]4C[C@H](O)CC[C@]4(C)[C@H]3CC[C@]12C` [allopregnanolone] as the compound, how does the “number of SWDs observed” value [2] read?
Answer: The value was “decreases the number of SWDs”.

Question: For `CC(=O)[C@H]1CC[C@H]2[C@@H]3CC[C@H]4C[C@](C)(O)CC[C@]4(C)[C@H]3CC[C@]12C` [GANX, 3α-hydroxy-3β-methyl-5α-pregnan-20-one], which side effects [3] is on record?
Answer: The side effects was “relatively modest side effects”.

Question: What about the “number of SWDs observed” value [2] of the same compound?
Answer: Its value is “decreases the number of SWDs”.

Question: What about the “briefer Wake durations of RQ mice” value ([4]; RQ mice) of the same compound?
Answer: The value was “not reversed”.

Question: What about the “shorter brief awakenings (<=16 seconds) of RQ mice” value ([4]; RQ mice) of the same compound?
Answer: Its value is “not altered”.

Question: What about the “shorter durations of single NREM episodes of RQ mice” value ([4]; RQ mice) of the same compound?
Answer: Its value is “reversed by GANX to normal levels”.

Question: What about the “higher normalized delta power of RQ mice” value ([4]; RQ mice, normal sleep time (daylight)) of the same compound?
Answer: Its value is “reversed by GANX toward normal levels”.

Question: What about the “durations of REM” value ([4]; RR, RQ, RQ with GANX) of the same compound?
Answer: Its value is “No groups differed”.

Question: What about the “number of brief awakenings” value ([4]; RR, RQ, RQ with GANX) of the same compound?
Answer: The value was “did not differ between any groups”.

Question: For `CCOC(=O)c1ncn2c1C1CCCN1C(=O)c1cc(OC)ccc1-2` (stereo not shown) [L655,708, 11,12,13,13a-Tetrahydro-7-methoxy-9-oxo-9H-imidazo[1,5-a]pyrrolo[2,1-c][1,4]benzodiazepine-1-carboxylic acid, ethyl ester], which “tonic current in RR somatosensory cortical layer II/III cells” value [5] is on record?
Answer: The value was “completely blocked”.

Question: And the “SWD generation in RR mice” value ([6]; 2 mg/kg i.p.)?
Answer: The value was “produced SWDs”.

Question: And the “persistence of SWDs after the last injection” value ([6]; injected twice a day for 2 consecutive days, wild-type mice)?
Answer: The value was “still displayed SWDs 3 days after the last injection”.
